Measured values: ChEMBL document CHEMBL2375293, “Identification of benzofurano[3,2-d]pyrimidin-2-ones, a new series of HIV-1 nucleotide-competing reverse transcriptase inhibitors” (Bioorg Med Chem Lett, 2013)
≈ marks a conversion by molar mass, not a printed value.

How the values were obtained:
[1] = Antiviral activity against wild type HIV1 BH10 infected in human C8166 cells after 3 days by luciferase reporter gene assay; type: functional, cell-based, Human immunodeficiency virus type 1 BH10; conditions: Human immunodeficiency virus 1, C8166, 72 h
[2] = Inhibition of HIV1 BH10 reverse transcriptase using poly(rA)/oligo(dT)15 as substrate after 60 mins by fluorescence assay; parameters: species or system Human immunodeficiency virus type 1 BH10
[3] = Cytotoxicity against human C8166 cells assessed as inhibition of cell viability after 3 days by MTT assay; type: cell-based
[4] = Cytotoxicity against human C8166 cells assessed as inhibition of cell viability at CC50 after 3 days by MTT assay; type: cell-based; conditions: read-out: INH
[5] = n-Octanol-phosphate buffer partition coefficient, log D of the compound at 0.5 mg after 24 hrs by LC-MS analysis; type: physicochemical
[6] = Half life in Sprague-Dawley rat liver microsomes at 1 uM by LC-MS/MS analysis; type: ADME, Microsome
[7] = system: Human immunodeficiency virus type 1 BH10; test: Selectivity ratio of EC50 for HIV1 BH10 harboring reverse transcriptase M184V mutant to EC50 for wild type HIV1 BH10; type: functional
[8] = Apparent permeability across human Caco2 cells at 10 uM by LC-MS/MS analysis; type: ADME, cell-based; conditions: Caco-2
[9] = system: Human immunodeficiency virus type 1 BH10; test: Selectivity ratio of EC50 for HIV1 BH10 harboring reverse transcriptase K65R mutant to EC50 for wild type HIV1 BH10; type: functional
[10] = Solubility of the compound in phosphate buffer at pH 6.8 after 24 hrs by LC-MS analysis; type: physicochemical
[11] = Ratio of EC50 for wild type HIV1 BH10 infected in human C8166 cells in presence of serum to EC50 for wild type HIV1 BH10 infected in human C8166 cells in absence of serum; type: functional, Human immunodeficiency virus type 1 BH10
[12] = system: Human immunodeficiency virus type 1 BH10; test: Selectivity ratio of EC50 for HIV1 BH10 harboring reverse transcriptase Y115F/M184V double mutant to EC50 for wild type HIV1 BH10; type: functional
[13] = system: Human immunodeficiency virus type 1 BH10; test: Selectivity ratio of EC50 for HIV1 BH10 harboring reverse transcriptase K103N/Y181C double mutant to EC50 for wild type HIV1 BH10; type: functional
[14] = Ratio of CC50 for human C8166 cells to EC50 for wild type HIV1 BH10 infected in human C8166 cells
[15] = Half life in human liver microsomes at 1 uM by LC-MS/MS analysis; type: ADME, Microsome
[16] = Solubility of the compound in phosphate buffer at pH 2 after 24 hrs by LC-MS analysis; type: physicochemical
[17] = system: Human immunodeficiency virus type 1 BH10; test: Selectivity ratio of EC50 for HIV1 BH10 harboring reverse transcriptase Y115F mutant to EC50 for wild type HIV1 BH10; type: functional

SMILES	EC50 [1] [nM]	IC50 [2] [nM]	CC50 at 72 h [3] [nM]	also measured
CNCCNc1ccc(-c2nc(=O)n(CCOC)c3c2oc2ccc(Cl)cc23)cc1	87	10	960	–
COCCn1c(=O)nc(-c2ccc(NCCN3CCCC3)cc2)c2oc3ccccc3c21	2400	120	> 7400	–
COCCn1c(=O)nc(-c2ccnc(N3CCN(C)CC3)c2)c2oc3ccc(Br)cc3c21	–	> 5000	–	–
Cn1c(=O)nc(-c2ccccc2)c2oc3ccccc3c21	–	> 83000	–	–
O=c1nc(-c2ccccc2)c2oc3ccc(Cl)cc3c2n1CCN1CCOCC1	–	6500	–	–
CCNCC(=O)Nc1ccc(-c2nc(=O)n(CCOC)c3c2oc2ccc(Cl)cc23)cc1	550	46	3000	–
COCCn1c(=O)nc(-c2ccc(N3CCN(C)CC3)nc2)c2oc3ccc(Cl)cc3c21	890	75	> 5800	cytotoxicity at 72 h [4]: 37%
CCNCC(=O)Nc1ccc(-c2nc(=O)n(CCOC)c3c2oc2ccc(-c4cccnc4)cc23)cc1	200	27	> 5100	cytotoxicity at 72 h [4]: 33%
CCNCc1nc2cc(-c3nc(=O)n(CCOC)c4c3oc3ccc(Br)cc34)ccc2n1C	540	42	> 4400	cytotoxicity at 72 h [4]: 20%
CCNCC(=O)Nc1ccc(-c2nc(=O)n(CCOC)c3c2oc2ccccc23)cc1	680	73	5100	–
CN1CCc2cc(-c3ccc4oc5c(-c6ccccc6)nc(=O)n(CCN6CCCC6C(N)=O)c5c4c3)ccc2C1 (centres undefined)	52	5.9	–	logD at 24 h [5]: 3; half-life at 1 µM [6]: 1 h; Ratio EC50 [7]: 5.8; Papp at 10 µM [8]: 0.17 ×10⁻⁶ cm/s; Ratio EC50 [9]: 0.3; solubility at 24 h [10]: 725 µg/mL (≈ 1320 µM); Ratio EC50 [11]: 8.4; Ratio EC50 [12]: 14.2; Ratio EC50 [13]: 1.7; Ratio CC50/EC50 [14]: >127; half-life at 1 µM [15]: 1.22 h; solubility at 24 h [16]: 781 µg/mL (≈ 1430 µM)
CCNCC(=O)Nc1ccc(-c2nc(=O)n(CCOC)c3c2oc2cc(-c4ccc(CN(C)C)cc4)ccc23)cc1	53	7.4	1000	–
CCNCC(=O)Nc1ccc(-c2nc(=O)n(CCOC)c3c2oc2ccc(-c4ccc(CN(C)C)cc4)cc23)cc1	94	12	3900	–
COCCn1c(=O)nc(-c2ccc(N3CCNCC3)cc2)c2oc3ccc(Cl)cc3c21	175	10	2700	–
O=c1nc(-c2ccccc2)c2oc3ccc(Cl)cc3c2n1CCN1CCCC1	3700	590	> 7300	cytotoxicity at 72 h [4]: 6%
NC(=O)C1CCCN1CCn1c(=O)nc(-c2ccccc2)c2oc3ccc(Cl)cc3c21 (centres undefined)	2600	650	> 6700	–
COCCn1c(=O)nc(-c2ccc(NC(=O)C(C)N(C)C)cc2)c2oc3ccccc3c21 (centres undefined)	4400	1400	> 11000	cytotoxicity at 72 h [4]: 14%

SMILES	EC50 [1] [nM]	IC50 [2] [nM]	CC50 at 72 h [3] [nM]	also measured
CCNCC(=O)Nc1ccc(-c2nc(=O)n(CCOC)c3c2oc2cc(-c4ccc5c(c4)CCN(C)C5)ccc23)cc1	88	8.6	2100	–
CNC1CCN(c2ccc(-c3nc(=O)n(CCOC)c4c3oc3ccc(Cl)cc34)cn2)C1 (centres undefined)	210	40	4300	–
CCNCC(=O)Nc1ccc(-c2nc(=O)n(CCOC)c3c2oc2ccc(-c4ccccc4)cc23)cc1	360	33	2300	–
COCCn1c(=O)nc(-c2ccc(COCCN(C)C)cc2)c2oc3ccccc3c21	> 11000	818	–	–
CN(C)CC(=O)Nc1ccc(-c2nc(=O)n(C)c3c2oc2ccccc23)cc1	1600	3100	7700	–
O=c1nc(-c2ccccc2)c2oc3ccccc3c2n1CCN1CCCC1	11000	4200	18000	–
O=c1nc(-c2ccccc2)c2oc3ccccc3c2n1CCN1CCOCC1	–	> 26000	–	–
COCCn1c(=O)nc(-c2ccc(N3CCN(C)CC3)cc2)c2oc3ccc(Cl)cc3c21	430	24	> 4500	cytotoxicity at 72 h [4]: 18%
CN1CCc2cc(-c3ccc4oc5c(-c6ccccc6)nc(=O)n(CCN6CCC(F)(F)C6)c5c4c3)ccc2C1	25	20	–	logD at 24 h [5]: 3.9; half-life at 1 µM [6]: 0.1 h; Ratio EC50 [7]: 4.8; Papp at 10 µM [8]: 0.55 ×10⁻⁶ cm/s; Ratio EC50 [9]: 0.3; solubility at 24 h [10]: < 0.1 µg/mL; Ratio EC50 [11]: 7.3; Ratio EC50 [12]: 14.8; Ratio EC50 [13]: 1.7; Ratio CC50/EC50 [14]: >46; half-life at 1 µM [15]: 0.317 h; solubility at 24 h [16]: > 1000 µg/mL
COCCn1c(=O)nc(-c2ccc(OCCN(C)C)cc2)c2oc3ccccc3c21	14000	630	–	–
CCNCC(=O)Nc1ccc(-c2nc(=O)n(CCOC)c3c2oc2ccc(-c4ccc5c(c4)CCN(C)C5)cc23)cc1	30	4.2	4800	logD at 24 h [5]: 2.4; Ratio EC50 [17]: 2; half-life at 1 µM [6]: 2.33 h; Ratio EC50 [7]: 1.1; Papp at 10 µM [8]: < 0.1 ×10⁻⁶ cm/s; Ratio EC50 [9]: 0.1; solubility at 24 h [10]: 650 µg/mL (≈ 1150 µM); Ratio EC50 [11]: 1.5; Ratio EC50 [12]: 3.3; Ratio EC50 [13]: 1.1; Ratio CC50/EC50 [14]: 137; half-life at 1 µM [15]: 1.55 h; solubility at 24 h [16]: > 822 µg/mL
COCCn1c(=O)nc(-c2ccc(NC(=O)CN(C)C)cc2)c2oc3ccccc3c21	3600	1200	> 11000	cytotoxicity at 72 h [4]: 15%
O=c1nc(-c2ccccc2)c2oc3ccc(Cl)cc3c2n1CCN1CCC(F)(F)C1	2900	320	> 4500	–
COCCn1c(=O)nc(-c2ccc(C(=O)NCCN(C)C)cc2)c2oc3ccccc3c21	> 9300	945	–	–
COCCn1c(=O)nc(-c2cnc(N3CCN(C)CC3)nc2)c2oc3ccccc3c21	690	155	> 9500	cytotoxicity at 72 h [4]: 40%
COCCn1c(=O)nc(-c2ccc(NC(=O)CN3CCCC3)cc2)c2oc3ccccc3c21	1100	390	5950	–
CCNCC(=O)Nc1ccc(-c2nc(=O)n(CCOC)c3c2oc2ccc(-c4ccc(CO)cc4)cc23)cc1	300	34	> 1300	–
